How the values were obtained:
Assay type in all cases: cell-based
[1] = test system: Human dermal fibroblasts from Friedreich's Ataxia patients; test: Rescue of BSO-stressed FRDA fibroblasts (Calcein AM viability); conditions: BSO-stressed FRDA fibroblasts (GM04078), less than about 150 nM, read-out: EC50, protection against FRDA
How it was run: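 Patient FRDA fibroblasts (GM04078) seeded at 3,000 cells/well, given serially diluted compound from a 150 μM master solution, then stressed next day with 1 mM BSO.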

[2] = test system: human dermal fibroblasts from CoQ10 deficient patients; test: Rescue of BSO-stressed fibroblasts from CoQ10 deficient patients (screen similar to Example A); conditions: Fibroblast, BSO-stressed fibroblasts from CoQ10 deficient patients harboring a CoQ2 mutation, less than about 150 nM, read-out: EC50, protection against CoQ10 deficiency
Method: A culture with FRDA fibroblasts was started from a 1 ml vial with approximately 500,000 cells stored in liquid nitrogen. Cells were propagated in 10 cm cell culture dishes by splitting every third day in a ratio of 1:3 until nine plates were available. Once confluent, fibroblasts were harvested. For 54 micro titer plates (96 well-MTP) a total of 14.3 million cells (passage eight) were re-suspended in 480 ml medium, corresponding to 100 μl medium with 3,000 cells/well. The remaining cells were distributed in 10 cm cell culture plates (500,000 cells/plate) for propagation. The plates were incubated overnight at 37° C. in an atmosphere with 95% humidity and 5% CO2 to allow attachment of the cells to the culture plate.
MTP medium (243 μl) was added to a well of the microtiter plate. The test compounds were unfrozen, and 7.5 μl of a 5 mM stock solution was dissolved in the well containing 243 μl medium, resulting in a 150 μM master solution. Serial dilutions from the master solution were made. The period between the single dilution steps was kept as short as possible (generally less than 1 second).
Plates were kept overnight in the cell culture incubator. The next day, 10 μl of a 10 mM BSO solution were added to the wells, resulting in a 1 mM final BSO concentration. Forty-eight hours later, three plates were examined under a phase-contrast microscope to verify that the cells in the 0% control (wells E1-H1) were clearly dead. The medium from all plates was discarded, and the remaining liquid was removed by gently tapping the plate inversed onto a paper towel.
100 μl of PBS containing 1.2 μM Calcein AM were then added to each well. The plates were incubated for 50-70 minutes at room temperature. After that time the PBS was discarded, the plate gently tapped on a paper towel and fluorescence (excitation/emission wavelengths of 485 nm and 525 nm, respectively) was read on a Gemini fluorescence reader. Data was imported into Microsoft Excel (EXCEL is a registered trademark of Microsoft Corporation for a spreadsheet program) and used to calculate the EC50 concentration for each compound.
Compounds of the invention were tested using a screen similar to the one described in Example A, but substituting FRDA cells with cells obtained from CoQ10 deficient patients harboring a CoQ2 mutation. The compounds were tested for their ability to rescue human dermal fibroblasts from CoQ10 deficient patients from oxidative stress.

[3] = test system: human dermal fibroblasts from Huntington's patients; test: Rescue of BSO-stressed fibroblasts from Huntington's patients (screen as Example A); conditions: Fibroblast, BSO-stressed Huntington's fibroblasts (GM 04281), less than about 150 nM, read-out: EC50, protection against Huntington's
How it was run: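 Coriell Huntington's line GM 04281 plated at 3,000 cells/well and attached overnight at 37 °C. Survival was read by Calcein AM (1.2 μM, 50-70 min, RT) fluorescence at 485/525 nm, giving EC50.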

[4] = test system: human dermal fibroblasts from LHON patients; test: Rescue of BSO-stressed fibroblasts from LHON patients (screen as Example A); conditions: Fibroblast, BSO-stressed LHON fibroblasts (GM03858), less than about 150 nM, read-out: EC50, protection against LHON
How it was run: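 LHON patient fibroblasts (Coriell GM03858) at 3,000 cells/well were pre-treated overnight with compounds serially diluted from a 150 μM master solution. Surviving cells were stained with 1.2 μM Calcein AM for 50-70 min at RT and read by fluorescence (485/525 nm), giving EC50.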

[5] = test system: human dermal fibroblasts from Parkinson's Disease patients; test: Rescue of BSO-stressed fibroblasts from Parkinson's Disease patients (screen as Example A); conditions: Fibroblast, BSO-stressed Parkinson's Disease fibroblasts (AG20439), less than about 150 nM, read-out: EC50, protection against PD
How it was run: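 Dermal fibroblasts from a Parkinson's Disease patient (Coriell AG20439) were plated at 3,000 cells/well, attached overnight and pre-incubated overnight with serially diluted compounds (150 μM master solution). Survival was read by 1.2 μM calcein AM (50–70 min, RT, 485/525 nm fluorescence) and converted to EC50.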

Measured: EC50

CC1=C(C)C(=O)C(CCNC(=O)NCc2ccc(C(F)(F)F)cc2)=C(C)C1=O [1-(4-(trifluoromethyl)benzyl)-3-(2-(2,4,5-trimethyl-3,6-dioxocyclohexa-1,4-dienyl)ethyl)urea]
not listed: [5]
< 150 nM: all other assays above

CC1=C(C)C(=O)C(CCC(C)(C)C(N)=O)=C(C)C1=O [2,2-dimethyl-4-(2,4,5-trimethyl-3,6-dioxocyclohexa-1,4-dienyl)butanamide]
< 150 nM: all assays above

CC1=C(C)C(=O)C(CCCC(=O)N2CCc3ccccc3C2)=C(C)C1=O [2-(4-(3,4-dihydroisoquinolin-2(1H)-yl)-4-oxobutyl)-3,5,6-trimethylcyclohexa-2,5-diene-1,4-dione]
< 150 nM: all assays above

CC1=C(C)C(=O)C(CCCC(=O)N2CCCc3ccccc32)=C(C)C1=O [2-(4-(3,4-dihydroquinolin-1 (2H)-yl)-4-oxobutyl)-3,5,6-trimethylcyclohexa-2,5-diene-1,4-dione]
not listed: [5]
< 150 nM: all other assays above

CC1=C(C)C(=O)C(CCCC(=O)N2CCc3ccccc32)=C(C)C1=O [2-(4-(indolin-1-yl)-4-oxobutyl)-3,5,6-trimethylcyclohexa-2,5-diene-1,4-dione]
< 150 nM: all assays above

CC1=C(C)C(=O)C(CCCC(=O)N2Cc3ccccc3C2)=C(C)C1=O [2-(4-(isoindolin-2-yl)-4-oxobutyl)-3,5,6-trimethylcyclohexa-2,5-diene-1,4-dione]
< 150 nM: all assays above

COc1ccc(CC(=O)NCCC2=C(C)C(=O)C(C)=C(C)C2=O)cc1 [2-(4-methoxyphenyl)-N-(2-(2,4,5-trimethyl-3,6-dioxocyclohexa-1,4-dienyl)ethyl)acetamide]
not listed: [5]
< 150 nM: all other assays above

CC1=C(C)C(=O)C(CCNC(=O)C(O)c2ccc(C(F)(F)F)cc2)=C(C)C1=O (centres unmarked) [2-hydroxy-2-(4-(trifluoromethyl)phenyl)-N-(2-(2,4,5-trimethyl-3,6-dioxocyclohexa-1,4-dienyl)ethyl)acetamide]
not listed: [5]
< 150 nM: all other assays above

CC1=C(C)C(=O)C(CCCC(N)=O)=C(C)C1=O [4-(2,4,5-trimethyl-3,6-dioxocyclohexa-1,4-dienyl)butanamide]
< 150 nM: all assays above

CC1=C(C)C(=O)C(CCCC(=O)Nc2ccc3c(c2)OCCO3)=C(C)C1=O [N-(2,3-dihydrobenzo[b][1,4]dioxin-6-yl)-4-(2,4,5-trimethyl-3,6-dioxocyclohexa-1,4-dienyl)butanamide]
not listed: [5]
< 150 nM: all other assays above

CC1=C(C)C(=O)C(CCCC(=O)Nc2ccc(Cl)cc2N)=C(C)C1=O [N-(2-amino-4-chlorophenyl)-4-(2,4,5-trimethyl-3,6-dioxocyclohexa-1,4-dienyl)butanamide]
< 150 nM: all assays above

CC1=C(C)C(=O)C(CCCC(=O)NCc2ccccc2F)=C(C)C1=O [N-(2-fluorobenzyl)-4-(2,4,5-trimethyl-3,6-dioxocyclohexa-1,4-dienyl)butanamide]
< 150 nM: [5] | [2] | [3]

CC1=C(C)C(=O)C(CCCC(=O)NCc2cccc(Cl)c2)=C(C)C1=O [N-(3-chlorobenzyl)-4-(2,4,5-trimethyl-3,6-dioxocyclohexa-1,4-dienyl)butanamide]
not listed: [1]
< 150 nM: all other assays above

CC1=C(C)C(=O)C(CCCC(=O)NCCc2cccc(Cl)c2)=C(C)C1=O [N-(3-chlorophenethyl)-4-(2,4,5-trimethyl-3,6-dioxocyclohexa-1,4-dienyl)butanamide]
not listed: [1]
< 150 nM: all other assays above

CC1=C(C)C(=O)C(CCCC(=O)Nc2cccc(C#N)c2)=C(C)C1=O [N-(3-cyanophenyl)-4-(2,4,5-trimethyl-3,6-dioxocyclohexa-1,4-dienyl)butanamide]
not listed: [5]
< 150 nM: all other assays above

CC1=C(C)C(=O)C(CCCC(=O)NCc2cccc(F)c2)=C(C)C1=O [N-(3-fluorobenzyl)-4-(2,4,5-trimethyl-3,6-dioxocyclohexa-1,4-dienyl)butanamide]
< 150 nM: [5] | [2] | [3]

CC1=C(C)C(=O)C(CCCC(=O)Nc2cccc(F)c2)=C(C)C1=O [N-(3-fluorophenyl)-4-(2,4,5-trimethyl-3,6-dioxocyclohexa-1,4-dienyl)butanamide]
not listed: [5]
< 150 nM: all other assays above

CC1=C(C)C(=O)C(CCCC(=O)NCC2(O)CC2)=C(C)C1=O [N-((1-hydroxycyclopropyl)methyl)-4-(2,4,5-trimethyl-3,6-dioxocyclohexa-1,4-dienyl)butanamide]
not listed: [5]
< 150 nM: all other assays above

CC1=C(C)C(=O)C(CCCC(=O)NCc2ccccc2)=C(C)C1=O [N-benzyl-4-(2,4,5-trimethyl-3,6-dioxocyclohexa-1,4-dienyl)butanamide]
not listed: [1]
< 150 nM: all other assays above

CC1=C(C)C(=O)C(CCCC(=O)NCCc2ccccc2)=C(C)C1=O [N-phenethyl-4-(2,4,5-trimethyl-3,6-dioxocyclohexa-1,4-dienyl)butanamide]
< 150 nM: [2] | [3] | [4]

Reference: patent US9090576B2, “2-substituted-p-quinone derivatives for treatment of oxidative stress diseases” (Edison Pharmaceuticals, Inc., priority 2008, dated 2015)
